Each structure is given as a SMILES string.

This assay has as its system human mixed lymphocyte reaction (MLR). Kind of assay: human mixed lymphocyte reaction (MLR) assay, immunosuppressant activity. It counts as cell-based. As to conditions: Table 1. Here is the method:
Example 68; In Vitro Assay of Biological Activity
The immunosuppressant activity of the compounds of the present invention was determined using the human mixed lymphocyte reaction (MLR) assay described by Kino, T. et al. in Transplantation Proceedings XIX(5);36-39, Suppl. 6 (1987), incorporated herein by reference.
Broadly, the IC50 is the midpoint of a concentration-inhibition curve. The low end stands for inhibition by little substance, the high end for a need for much substance. Turning to `CC[C@@H]1/C=C(\C)C[C@H](C)C[C@H](OC)[C@H]2O[C@@](O)(C(=O)C(=O)N3CCCC[C@H]3C(=O)O[C@H](/C(C)=C/[C@@H]3CC[C@H](N(CCO)CCN4CCOCC4)[C@H](OC)C3)[C@H](C)[C@@H](O)CC1=O)[C@H](C)C[C@@H]2OC` [Example 30], the IC50 is less than 1000 nM.
As to `CC[C@@H]1/C=C(\C)C[C@H](C)C[C@H](OC)[C@H]2O[C@@](O)(C(=O)C(=O)N3CCCC[C@H]3C(=O)O[C@H](/C(C)=C/[C@@H]3CC[C@H](NCCN4CCNCC4)[C@H](OC)C3)[C@H](C)[C@@H](O)CC1=O)[C@H](C)C[C@@H]2OC` [Example 18], the IC50 is less than 1000 nM.
For `CC[C@@H]1/C=C(\C)C[C@H](C)C[C@H](OC)[C@H]2O[C@@](O)(C(=O)C(=O)N3CCCC[C@H]3C(=O)O[C@H](/C(C)=C/[C@@H]3CC[C@@H](NCCCN4CCCCC4)[C@H](OC)C3)[C@H](C)[C@@H](O)CC1=O)[C@H](C)C[C@@H]2OC` [Example 47], the IC50 was less than 1000 nM.
In turn, `CC[C@@H]1/C=C(\C)C[C@H](C)C[C@H](OC)[C@H]2O[C@@](O)(C(=O)C(=O)N3CCCC[C@H]3C(=O)O[C@H](/C(C)=C/[C@@H]3CC[C@H](NCCCN4CCN(C)CC4)[C@H](OC)C3)[C@H](C)[C@@H](O)CC1=O)[C@H](C)C[C@@H]2OC` [Example 12] yielded an IC50 of less than 1000 nM.
Compound `CC[C@@H]1/C=C(\C)C[C@H](C)C[C@H](OC)[C@H]2O[C@@](O)(C(=O)C(=O)N3CCCC[C@H]3C(=O)O[C@H](/C(C)=C/[C@@H]3CC[C@H](NCCN4CCOCC4)[C@H](OC)C3)[C@H](C)[C@@H](O)CC1=O)[C@H](C)C[C@@H]2OC` [Example 5] had an IC50 of less than 1000 nM.
`CC[C@@H]1/C=C(\C)C[C@H](C)C[C@H](OC)[C@H]2O[C@@](O)(C(=O)C(=O)N3CCCC[C@H]3C(=O)O[C@H](/C(C)=C/[C@@H]3CC[C@H](NC4CCN(Cc5ccccc5)CC4)[C@H](OC)C3)[C@H](C)[C@@H](O)CC1=O)[C@H](C)C[C@@H]2OC` [Example 8]: the half-inhibitory concentration (IC50) is less than 1000 nM.
`CC[C@@H]1/C=C(\C)C[C@H](C)C[C@H](OC)[C@H]2O[C@@](O)(C(=O)C(=O)N3CCCC[C@H]3C(=O)O[C@H](/C(C)=C/[C@@H]3CC[C@H](NCCCN4CCOCC4)[C@H](OC)C3)[C@H](C)[C@@H](O)CC1=O)[C@H](C)C[C@@H]2OC` [Example 17]: the IC50 is less than 1000 nM.
The compound `CC[C@@H]1/C=C(\C)C[C@H](C)C[C@H](OC)[C@H]2O[C@@](O)(C(=O)C(=O)N3CCCC[C@H]3C(=O)O[C@H](/C(C)=C/[C@@H]3CC[C@H](NCCN4CCCC4)[C@H](OC)C3)[C@H](C)[C@@H](O)CC1=O)[C@H](C)C[C@@H]2OC` [Example 19] yielded an IC50 of less than 1000 nM.
`CC[C@@H]1/C=C(\C)C[C@H](C)C[C@H](OC)[C@H]2O[C@@](O)(C(=O)C(=O)N3CCCC[C@H]3C(=O)O[C@H](/C(C)=C/[C@@H]3CC[C@H](NCCCN4CCCCC4)[C@H](OC)C3)[C@H](C)[C@@H](O)CC1=O)[C@H](C)C[C@@H]2OC` [Example 9]: the IC50 was less than 1000 nM.

The record behind these values is patent publication US5561139A, “Substituted alicyclic-aliphatic amine-containing macrocyclic immunomodulators” (Abbott Laboratories, priority 1995, dated 1996).
